The record followed here is PubChem BioAssay (NCI).

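Step 1: Grow cells in 96-well plates. Step 2: Expose to compound for 48 hours at 5 concentrations. Step 3: Interpolate endpoints linearly; if unreached, use highest concentration. At the TGI there is no net growth.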

Test systems include A498 renal; ACHN renal; BT-549 breast; HCT-15 colon; K-562 leukemia; MALME-3M melanoma; MDA-MB-435; MOLT-4 leukemia; OVCAR-4 ovarian; PC-3 prostate; SF-539 CNS; SK-MEL-2 melanoma; SK-MEL-28 melanoma; SK-OV-3 ovarian; SNB-75 CNS; SR leukemia; T-47D breast; TK-10 renal; U251 CNS; KM12 colon.
Test in all cases: growth of human tumour cells (NCI), 48 h

On to `COc1ccc(Cc2cc(OC)c(OC)c(OC)c2)cc1O`, for which the TGI in the assay on A498 renal was 76.8 µM; in the assay with ACHN renal it was greater than 100 µM; with BT-549 breast, greater than 100 µM; with HCT-15 colon, greater than 100 µM; in the assay with K-562 leukemia, greater than 100 µM; with MALME-3M melanoma, greater than 100 µM. Besides, the TGI with MDA-MB-435 is greater than 100 µM; in the assay with MOLT-4 leukemia it was greater than 100 µM; in the assay on OVCAR-4 ovarian, greater than 100 µM; in the assay with PC-3 prostate, greater than 100 µM; in the assay on SF-539 CNS it was 0.041 µM; in the assay on SK-MEL-2 melanoma, greater than 100 µM. In addition, the TGI in the assay with SK-MEL-28 melanoma is greater than 100 µM; in the assay on SK-OV-3 ovarian, greater than 80.2 µM; in the assay on SNB-75 CNS it was greater than 100 µM; in the assay on SR leukemia it was greater than 100 µM; in the assay on T-47D breast, greater than 100 µM; with TK-10 renal, greater than 100 µM. The same compound displayed a TGI in the assay on U251 CNS greater than 22.7 µM.

As for `CCC(C#N)N(Cc1ccc(CN(C(=O)c2ccccc2)C(C#N)CC)cc1)C(=O)c1ccccc1` (stereo not drawn), the TGI with A498 renal was 65 µM; in the assay on ACHN renal, greater than 100 µM; with BT-549 breast, 72.7 µM; in the assay with HCT-15 colon it was greater than 100 µM; with K-562 leukemia, greater than 100 µM; with KM12 colon, 67.7 µM. For the same compound, the TGI in the assay on MALME-3M melanoma was 88.5 µM; in the assay on MDA-MB-435, 65.7 µM; in the assay on MOLT-4 leukemia it was 65 µM; in the assay on OVCAR-4 ovarian it was 80.9 µM; in the assay with PC-3 prostate, greater than 100 µM; with SF-539 CNS it was 48.6 µM. Moreover, the TGI in the assay on SK-MEL-2 melanoma is 56.8 µM; in the assay with SK-OV-3 ovarian, greater than 100 µM; in the assay on SNB-75 CNS it was 68.8 µM; in the assay with SR leukemia it was greater than 100 µM; in the assay on T-47D breast, 67 µM; in the assay on TK-10 renal it was 74.4 µM. In addition, the TGI in the assay on U251 CNS came out at 56.1 µM.

For the compound `COc1cccc(N=N/C(=N/NC(=O)c2cc(Cl)ccc2O)c2ccc(N(CCC#N)CCC#N)cc2C)c1`, the TGI in the assay with A498 renal, in the assay with ACHN renal, in the assay on BT-549 breast, in the assay with HCT-15 colon, in the assay with K-562 leukemia and with KM12 colon was greater than 100 µM in each case. The TGI is 48.7 µM with MALME-3M melanoma; greater than 100 µM in the assay on MDA-MB-435; 89.6 µM with MOLT-4 leukemia; greater than 100 µM in the assay with OVCAR-4 ovarian; greater than 100 µM in the assay with PC-3 prostate; greater than 100 µM in the assay on SF-539 CNS. Moreover, the TGI in the assay on SK-MEL-2 melanoma is greater than 100 µM; in the assay on SK-OV-3 ovarian, greater than 100 µM; in the assay on SNB-75 CNS, greater than 100 µM; in the assay with SR leukemia it was greater than 100 µM; in the assay on T-47D breast, 58.4 µM; in the assay on TK-10 renal it was greater than 100 µM. For the same compound, the TGI in the assay on U251 CNS was greater than 100 µM.

On to `OCC1C(O)C(O)[C@@H]2SCCN12` (stereo partly drawn), for which the TGI with A498 renal, in the assay on ACHN renal, with BT-549 breast, with HCT-15 colon, in the assay on K-562 leukemia and in the assay with KM12 colon was greater than 100 µM in each case. For the same compound, the TGI in the assay on MALME-3M melanoma, in the assay with MDA-MB-435, in the assay on MOLT-4 leukemia, in the assay with OVCAR-4 ovarian, in the assay on PC-3 prostate and with SK-MEL-2 melanoma was greater than 100 µM in each case. Also, the TGI in the assay with SK-MEL-28 melanoma, in the assay on SK-OV-3 ovarian, in the assay with SNB-75 CNS, with SR leukemia, in the assay with T-47D breast and in the assay with TK-10 renal was greater than 100 µM each time. Further, the TGI in the assay with U251 CNS was greater than 100 µM.

With `Cn1c(=O)c2[nH]c(/N=N\n3ccc4ccccc43)nc2n(C)c1=O`, the TGI in the assay on A498 renal, in the assay with ACHN renal, in the assay on BT-549 breast, with HCT-15 colon, in the assay on K-562 leukemia and in the assay with KM12 colon was greater than 100 µM each time. Also, the TGI in the assay with MALME-3M melanoma, in the assay on MDA-MB-435, with MOLT-4 leukemia, with OVCAR-4 ovarian, with PC-3 prostate and in the assay on SF-539 CNS was greater than 100 µM in each case. In addition, the TGI in the assay with SK-MEL-28 melanoma, with SK-OV-3 ovarian, in the assay on SNB-75 CNS, in the assay with SR leukemia, in the assay on T-47D breast and with TK-10 renal was greater than 100 µM throughout. In the assay with U251 CNS, this compound came in with a TGI greater than 100 µM.

In the case of `COc1cc(O)c2c(=O)c3ccccc3n(C)c2c1`, the TGI in the assay on A498 renal, in the assay with ACHN renal, in the assay with BT-549 breast, in the assay on HCT-15 colon, in the assay on K-562 leukemia and in the assay on KM12 colon was greater than 100 µM each time. The TGI in the assay with MALME-3M melanoma, in the assay with MDA-MB-435, in the assay on MOLT-4 leukemia, in the assay on OVCAR-4 ovarian, in the assay on PC-3 prostate and in the assay with SF-539 CNS was greater than 100 µM each time. Besides, the TGI with SK-MEL-2 melanoma, in the assay with SK-MEL-28 melanoma, in the assay with SK-OV-3 ovarian, with SR leukemia, in the assay on T-47D breast and in the assay on TK-10 renal was greater than 100 µM each time. Besides, the TGI in the assay on U251 CNS is greater than 100 µM.

Turning to `COc1cc(/C=C2\N=C(c3ccccc3)N(c3nc4c(Cl)cc(Cl)cc4s3)C2=O)ccc1O`, the TGI in the assay with A498 renal was 49 µM; with ACHN renal it was 82.2 µM; with BT-549 breast, 77.4 µM; in the assay with HCT-15 colon, greater than 100 µM; with K-562 leukemia it was greater than 100 µM; with KM12 colon, greater than 100 µM. Also, the TGI in the assay on MDA-MB-435 is greater than 100 µM; in the assay with MOLT-4 leukemia, 43.3 µM; in the assay with OVCAR-4 ovarian, greater than 100 µM; in the assay on PC-3 prostate, 38.3 µM; with SF-539 CNS, greater than 100 µM; with SK-MEL-2 melanoma it was 55.1 µM. The TGI was greater than 100 µM in the assay with SK-MEL-28 melanoma; greater than 100 µM with SK-OV-3 ovarian; 75 µM in the assay on SNB-75 CNS; 29.6 µM with SR leukemia; 72.6 µM in the assay with T-47D breast; greater than 100 µM in the assay with TK-10 renal. The TGI with U251 CNS amounted to 75.4 µM.
